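Briefly, cells in 96-well plates were exposed to five compound concentrations for 48 h, and endpoints were estimated by linear interpolation. The concentration for 50% growth inhibition is given as GI50.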 Active and inactive are the calls of the source. Rule as the data show it: active = GI50 up to about 1.1 µM and inactive = higher.
Columns and labels:
Experiment in all cases: NCI-60 cell line screen, 48 h
OVCAR-4 = test system: OVCAR-4
BT-549 = test system: BT-549
TK-10 = test system: TK-10
SNB-75 = test system: SNB-75
Malme-3M = test system: Malme-3M
UACC-62 = test system: UACC-62
NCI-H23 = test system: NCI-H23
MDA-MB-231 = test system: MDA-MB-231
DU-145 = test system: DU-145
KM12 = test system: KM12
T47D = test system: T47D
M14 = test system: M14
HL-60 = test system: HL-60
MDA-N = test system: MDA-N
HOP-62 = test system: HOP-62
MDA-MB-435 = test system: MDA-MB-435
HT-29 = test system: HT-29
RPMI-8226 = test system: RPMI-8226
PC-3 = test system: PC-3
HCT-15 = test system: HCT-15
U-251 = test system: U-251
IGROV-1 = test system: IGROV-1
SK-OV-3 = test system: SK-OV-3
SN12C = test system: SN12C
UACC-257 = test system: UACC-257
NCI-H460 = test system: NCI-H460
SW-620 = test system: SW-620
SK-MEL-2 = test system: SK-MEL-2
SR = test system: SR
HOP-92 = test system: HOP-92
MCF7 = test system: MCF7
OVCAR-8 = test system: OVCAR-8
HCC 2998 = test system: HCC 2998
SK-MEL-28 = test system: SK-MEL-28
A498 = test system: A498
CAKI-1 = test system: CAKI-1
Hs-578T = test system: Hs-578T
SK-MEL-5 = test system: SK-MEL-5
NCI/ADR-RES = test system: NCI/ADR-RES
UO-31 = test system: UO-31
CCRF-CEM = test system: CCRF-CEM
OVCAR-3 = test system: OVCAR-3
RXF 393 = test system: RXF 393
NCI-H226 = test system: NCI-H226
OVCAR-5 = test system: OVCAR-5
LOX IMVI = test system: LOX IMVI
SF-295 = test system: SF-295
MOLT-4 = test system: MOLT-4
HCT-116 = test system: HCT-116
SNB-19 = test system: SNB-19
COLO 205 = test system: COLO 205
K562 = test system: K562
A549 = test system: A549
ACHN = test system: ACHN
SF-539 = test system: SF-539
786-0 = test system: 786-0
NCI-H522 = test system: NCI-H522
SF-268 = test system: SF-268
EKVX = test system: EKVX

Measured: GI50

CCn1c2ccccc2c2cc(NC(=O)c3c(C)[nH]c(=O)[nH]c3=S)ccc21
41.2 µM: HCT-15
inactive: OVCAR-4 > 100 µM | BT-549 31 µM | TK-10 53.6 µM | SNB-75 > 100 µM | Malme-3M 49.4 µM | UACC-62 31.9 µM | NCI-H23 38 µM | MDA-MB-231 19.8 µM | DU-145 42.1 µM | KM12 18.5 µM | T47D > 100 µM | M14 24.2 µM | HL-60 37 µM | MDA-N 29.2 µM | HOP-62 77.8 µM | MDA-MB-435 22.6 µM | HT-29 48.2 µM | RPMI-8226 40.6 µM | PC-3 31.8 µM | U-251 31.5 µM | IGROV-1 > 10 µM | SK-OV-3 > 100 µM | SN12C 69 µM | UACC-257 70.3 µM | NCI-H460 58.3 µM | SW-620 31.7 µM | SK-MEL-2 51.3 µM | SR 41 µM | HOP-92 > 100 µM | MCF7 49.4 µM | OVCAR-8 > 100 µM | HCC 2998 47.6 µM | SK-MEL-28 33.3 µM | A498 > 100 µM | CAKI-1 > 100 µM | Hs-578T 50.4 µM | SK-MEL-5 42.1 µM | NCI/ADR-RES > 100 µM | UO-31 51.3 µM | CCRF-CEM 29.2 µM | OVCAR-3 35.7 µM | RXF 393 35.6 µM | NCI-H226 33 µM | OVCAR-5 21.4 µM | LOX IMVI > 100 µM | SF-295 61.4 µM | MOLT-4 24.3 µM | HCT-116 43.3 µM | SNB-19 49.1 µM | COLO 205 22.9 µM | K562 28.8 µM

CC1CC(C)CN(S(=O)(=O)c2cc(Cl)c(Oc3ccc([N+](=O)[O-])cc3Cl)c(Cl)c2)C1 (stereo unspecified)
inactive: OVCAR-4 > 100 µM | A549 > 100 µM | BT-549 > 100 µM | TK-10 > 100 µM | SNB-75 > 100 µM | Malme-3M > 100 µM | UACC-62 > 100 µM | NCI-H23 > 100 µM | MDA-MB-231 > 100 µM | DU-145 > 100 µM | KM12 > 100 µM | T47D > 100 µM | M14 > 100 µM | ACHN > 100 µM | HL-60 > 100 µM | MDA-N > 100 µM | HOP-62 > 100 µM | MDA-MB-435 > 100 µM | HT-29 > 100 µM | RPMI-8226 > 100 µM | PC-3 > 100 µM | U-251 > 100 µM | SF-539 > 100 µM | IGROV-1 > 100 µM | SK-OV-3 > 100 µM | SN12C > 100 µM | UACC-257 > 100 µM | 786-0 > 100 µM | NCI-H460 > 100 µM | SW-620 > 100 µM | SK-MEL-2 > 100 µM | SR > 100 µM | HOP-92 > 100 µM | MCF7 > 100 µM | OVCAR-8 > 100 µM | HCC 2998 > 100 µM | SK-MEL-28 > 100 µM | NCI-H522 > 100 µM | A498 > 100 µM | SF-268 > 100 µM | CAKI-1 > 100 µM | Hs-578T > 100 µM | SK-MEL-5 > 100 µM | EKVX > 100 µM | NCI/ADR-RES > 100 µM | UO-31 > 100 µM | OVCAR-3 > 100 µM | RXF 393 > 100 µM | NCI-H226 > 100 µM | OVCAR-5 > 100 µM | LOX IMVI > 100 µM | SF-295 > 100 µM | MOLT-4 > 100 µM | HCT-116 > 100 µM | SNB-19 > 100 µM | COLO 205 > 100 µM | K562 > 100 µM
> 100 µM: HCT-15

CC(=O)c1cccn1/C=C(\OC(=O)OC(C)(C)C)c1ccc[nH]1
inactive: OVCAR-4 42 µM | A549 60 µM | BT-549 60.7 µM | TK-10 > 100 µM | SNB-75 8.24 µM | Malme-3M > 100 µM | UACC-62 99.1 µM | NCI-H23 69.8 µM | MDA-MB-231 73.8 µM | DU-145 58.9 µM | KM12 46.3 µM | T47D 33 µM | M14 76.4 µM | ACHN > 100 µM | HL-60 31 µM | MDA-N 81.8 µM | HOP-62 77.3 µM | MDA-MB-435 > 100 µM | RPMI-8226 59 µM | PC-3 49.1 µM | U-251 64.4 µM | IGROV-1 40.6 µM | SN12C 96.8 µM | UACC-257 > 100 µM | 786-0 > 100 µM | NCI-H460 > 100 µM | SW-620 83.9 µM | SK-MEL-2 > 100 µM | SR 31 µM | MCF7 76.4 µM | OVCAR-8 99.5 µM | HCC 2998 > 100 µM | SK-MEL-28 96.6 µM | NCI-H522 57 µM | A498 34.8 µM | SF-268 77.3 µM | CAKI-1 22 µM | Hs-578T > 100 µM | SK-MEL-5 40.3 µM | EKVX 25.5 µM | NCI/ADR-RES 50.2 µM | UO-31 36.9 µM | CCRF-CEM 39.8 µM | OVCAR-3 46.6 µM | RXF 393 33.8 µM | NCI-H226 33.2 µM | OVCAR-5 51.2 µM | LOX IMVI 62.4 µM | SF-295 39.4 µM | MOLT-4 48.2 µM | HCT-116 41.3 µM | SNB-19 46.7 µM | COLO 205 89.7 µM | K562 59.6 µM
55.5 µM: HCT-15

C1=Cc2nccc3cc4c(c(c23)N1)OCO4
13.9 µM: HCT-15
inactive: OVCAR-4 7.45 µM | A549 5.3 µM | BT-549 20.3 µM | TK-10 14.7 µM | SNB-75 6.93 µM | Malme-3M 9.23 µM | UACC-62 14.1 µM | NCI-H23 6.92 µM | MDA-MB-231 10.3 µM | DU-145 6.15 µM | KM12 6.73 µM | T47D 6.4 µM | M14 18.4 µM | ACHN 4.52 µM | HL-60 > 100 µM | MDA-N 8.02 µM | HOP-62 7.62 µM | MDA-MB-435 12.7 µM | RPMI-8226 4.53 µM | PC-3 11.6 µM | U-251 13.5 µM | IGROV-1 2.56 µM | SK-OV-3 5.92 µM | SN12C 4.89 µM | UACC-257 17.5 µM | 786-0 4.03 µM | NCI-H460 4.36 µM | SW-620 5.68 µM | SK-MEL-2 13.3 µM | SR 1.28 µM | HOP-92 22.3 µM | MCF7 2.32 µM | OVCAR-8 3.93 µM | HCC 2998 8.95 µM | SK-MEL-28 24 µM | NCI-H522 2.42 µM | A498 21.6 µM | SF-268 8.13 µM | CAKI-1 8.99 µM | Hs-578T 3.58 µM | EKVX 9.55 µM | NCI/ADR-RES 12.2 µM | UO-31 6.44 µM | CCRF-CEM 7.69 µM | OVCAR-3 10.9 µM | RXF 393 1.64 µM | NCI-H226 11.4 µM | OVCAR-5 10.4 µM | LOX IMVI 8.61 µM | SF-295 3.36 µM | MOLT-4 1.39 µM | HCT-116 3.08 µM | SNB-19 7.08 µM | COLO 205 3.55 µM | K562 3.17 µM

NNC(=O)C(O)C(O)C(=O)NN (stereo unspecified)
> 100 µM: HCT-15
inactive: OVCAR-4 > 100 µM | A549 66.4 µM | BT-549 > 100 µM | TK-10 > 100 µM | SNB-75 > 100 µM | Malme-3M > 100 µM | UACC-62 > 100 µM | NCI-H23 > 100 µM | MDA-MB-231 > 100 µM | DU-145 > 100 µM | KM12 > 100 µM | T47D > 100 µM | M14 > 100 µM | ACHN > 100 µM | MDA-N > 100 µM | HOP-62 > 100 µM | MDA-MB-435 > 100 µM | HT-29 > 100 µM | RPMI-8226 > 100 µM | PC-3 > 100 µM | U-251 > 100 µM | IGROV-1 > 100 µM | SK-OV-3 > 100 µM | SN12C > 100 µM | UACC-257 > 100 µM | 786-0 98.4 µM | SW-620 > 100 µM | SK-MEL-2 > 100 µM | SR 57.5 µM | MCF7 > 100 µM | OVCAR-8 > 100 µM | HCC 2998 > 100 µM | SK-MEL-28 > 100 µM | NCI-H522 54.5 µM | A498 > 100 µM | SF-268 > 100 µM | CAKI-1 > 100 µM | Hs-578T > 100 µM | SK-MEL-5 > 100 µM | EKVX > 100 µM | NCI/ADR-RES > 100 µM | UO-31 > 100 µM | CCRF-CEM > 100 µM | OVCAR-3 > 100 µM | RXF 393 > 100 µM | NCI-H226 > 100 µM | OVCAR-5 > 100 µM | LOX IMVI 65.9 µM | SF-295 > 100 µM | MOLT-4 64.3 µM | HCT-116 73.3 µM | SNB-19 > 100 µM | COLO 205 > 100 µM | K562 36.1 µM

Reference: ChEMBL document CHEMBL1201862, “PubChem BioAssay data set” (2004)
